In US20250361271A1, “PEPTIDE AGONIST” (THE UNIVERSITY OF BIRMINGHAM, priority 2022, published 2025):
Where a SMILES comes first, the peptide text is derived from it. [ ]: non-standard residue; d: D form. d(pGlu) = O=C1CC[C@H](C(=O)O)N1; pGlu = O=C1CC[C@@H](C(=O)O)N1; Aib = CC(C)(N)C(=O)O

What was measured:
T1/2 in plasma (mouse) = assay type: in vitro ADME; settings: for stability compared with PEPITEM: in mouse plasma, human plasma, and or mouse blood; for half-life: mouse, plasma, 1 μM peptide, 37° C.
From the text: Take all measurements in duplicate.

[1] = assay type: in vitro ADME, pig
Procedure: Pig eyes were treated with either […] or one of TVS (reverse sequence of SVT comprising amino acids in D-isomeric forms), […] and QGA, derived from the […] sequence. The eyes were then incubated in a dark humified chamber. The eyes were dissected, and the vitreous humour and retina were harvested. The samples were sonicated to break up the tissue and purified using a C18 column. Once purified, the samples were digested and analysed by mass spectrometry.

[2] = test system: PBLs on cytokine stimulated HDBECs; settings: for % Inhibition (3 nM): 3 nM peptide; for % Inhibition (3 nM) / % Inhibition (0.3 nM): inhibition of PBL transmigration (as a percentage of adherent cells); for effectiveness in inhibiting PBL transmigration compared with PEPITEM (% Inhibition at 0.3 and/or 3 nM): PEPITEM 41.90; for % Inhibition (0.3 nM): 0.3 nM peptide
Procedure: Blood samples were obtained from consensual healthy donors and were collected in EDTA tubes (Sigma-Aldrich). […] 5 ml of blood was layered on top of the density gradient, and was centrifuged at 2500 rpm for 45 minutes. […] The PBMCs were washed twice for 7 minutes at 1500 rpm. Peripheral blood lymphocytes (PBLs) were isolated via panning PBMCs onto a culture flask for 30 minutes at 37° C., allowing monocytes to adhere.
HDBECS defrosted at 37° C. in a 25 cm^2 cell culture flask in 10 ml of media were dissociated using EDTA (Sigma-Aldrich) and Trypsin (Gibco) and seeded on 10 wells in a 12-well tissue culture plates (Falcon) and left to adhere at 37° C. After 24 hours, confluent endothelial layers were cytokine stimulated using 100 U/ml TNF-α (Sigma-Aldrich) and 10 ng/ml IFN-γ (Peprotech) for 24 hours at 37° C. The peptide treatment of the 1×10^6 cells/ml PBLs consisted of adding the peptides immediately before use. […] 1×10^6 PBLs were added to each well and incubated at 37° C., allowing PBLs to adhere to migrate across the endothelium. […] Cells were then fixed with 2% glutaraldehyde for 10 minutes and then imaged using phase-contrast microscopy via an inverted bright-field microscope at 20× magnification.
Imaging of the PBL migration assay was carried out using ImagePro 7 software (Media Cybernetics). Surface adherent cells were categorised as being phase-bright, and transmigrated cells were categorised as phase-dark with altered morphology, appearing as being under the endothelial layer. Images were taken at 5 different fields of each well, and an average of counted adherent and migrated PBLs was calculated.
The same methods described for the in vitro transmigration assay and analysis were used, and PBL transmigration was calculated as a percentage of adherent cells. Peptides were added to the PBLs at concentrations ranging from 0.0001-500 ng/ml on the cytokine stimulated HDBECs and the resulting PBL transmigration (as a percentage of adherent cells) was plotted as a function of log10 of the peptide concentration.
The peptides were added at concentration of 20 ng/ml and run alongside untreated PBL (PBL0) and scrambled protein to analyse their effects on adhesion and transmigration.

[3] = test system: primary human osteoblasts; experiment: Alkaline phosphatase activity, human osteoblasts; assay type: cell-based; settings: 10 ng/ml peptide, 4 days, vs untreated cells, FIG. 5a
Procedure: Human osteoarthritis subchondral joint tissue was obtained at the time of total knee and hip joint replacement operations from the Royal Orthopaedic Hospital (Birmingham). To isolate primary osteoblasts, cartilage was removed from the femoral condyles and tibial plateaus and cut into 2 mm^2 pieces. Samples were kept in media and cleaned of fat. Media contains DMEM (Sigma, D6546), FCS (10%), GPS (1%), Non-essential amino acid (1%; Sigma, M7145), β10 glycerophosphate (2 mM; Sigma, G9422) and L-Ascorbic acid (50 μg/ml; Sigma, A5960). Bone chips were placed in T75 flasks in 10 mL of media, replacing media every 2-3 days. […]
Osteoblasts (8×10^3 cells/well) were cultured in mineralisation differentiation media in the presence or absence of peptide (10 ng/ml) for 4 days. Mineralisation was assessed by quantifying the level of alkaline phosphate (ALP) activity (absorbance at 405 nm) per condition normalized to the absorbance generated by the untreated control (control on the graph).
To measure ALP activity, cells were washed in PBS before being lysed in 100 μl of RIPA buffer (Thermo Fisher, R^0278) for 15 minutes on ice. […] The plate was wrapped in foil and left to run for 45 minutes at 37° C. in an incubated shaker (SciQuip; Shropshire, UK) before being quantified using a Synergy HT plate reader (BioTek) with absorbance set at 405 nm.

[4] = test system: primary murine calvarial osteoblasts; experiment: Alkaline phosphatase activity, murine osteoblasts; assay type: cell-based, mouse; settings: vs untreated cells
Procedure: Skin was removed from around calvaria using forceps, and the calvaria was dissected out and cleaned of any contaminating tissue. Calvaria were added to αMEM media supplemented with 1 mg/ml of collagenase d (Roche, Basel, Switzerland, COLLD-RO). Tubes were then agitated at 37° C. for 10 minutes and the media discarded. αMEM media supplemented with 1 mg/ml of collagenase d was again added to calvaria and shaken at 37° C. for 30 minutes. Media (containing cells) was then removed and kept on ice. The calvaria were then again shaken at 37° C. for 10 minutes in 1.5 ml of αMEM media supplemented with 5 μM EDTA (Sigma-Aldrich, E7889) and the cell containing media transferred to the sample on ice, pooling the cells. […] Cells on ice were then spun down at 300 g for 4 minutes, resuspended in 1 ml of Basal media and counted using a haemocytometer. […] Mineralisation was assessed by quantifying the level of alkaline phosphate (ALP) activity (absorbance at 405 nm) per condition normalized to the absorbance generated by the untreated control (control on the graph). […] The plate was wrapped in foil and left to run for 45 minutes at 37° C. in an incubated shaker (SciQuip; Shropshire, UK) before being quantified using a Synergy HT plate reader (BioTek) with absorbance set at 405 nm.

Procedure for T1/2 in blood (mouse): Store at −20° C. or on ice. • 2) Thaw the blood and spin in a centrifuge at 1500×g for 10 minutes at room temperature. • 3) Prepare stock solution of the peptide at 10 mM in DMSO or PBS and dilute solutions by adding 3 μL of 10 mM stock to 297 μL DMSO or PBS (100 μM stock for a final 1 μM concentration). • 4) Add 550 μL blood to an incubation tube and separately add 4 μL of peptide stock solution to an incubation tube. Warm the incubation tubes (5 minutes, 37° C., with shaking). • 5) After warming, add 396 μL of warmed blood to warmed peptide (time=0). Mix well and shake the tube containing the mixed sample (37° C., 1400×g). • 6) At 2, 5, 15, 30, 45 and 60 minutes after contacting the peptide and blood, collect 40 μL of the sample into pre-prepared quench tubes. • 7) Analyse the sample at each time point by mass spectrometry. Take all measurements in duplicate.
The samples were analysed and the T1/2 values were calculated by XenoGesis. The T1/2 values correspond to the time taken for the concentration of the peptide in the blood or plasma to be reduced by 50%.

CC(C)[C@@H](NC(=O)[C@H](N)[C@H](C)O)C(=O)N[C@H](CO)C(N)=O (relative stereo) [SEQ ID NO. 11, H-T*V*S*-NH2]
stability compared with PEPITEM (T1/2 in plasma (mouse)): at least as stable | half-life (T1/2 in plasma (mouse)): > 3 h | eye tissue in which the peptide was found by mass spectrometry [1]: Retina only | IC50 [2]: 0.024 nM

CC(=O)N[C@@H](CO)C(=O)N[C@H](C(=O)N[C@H](C(=O)O)[C@@H](C)O)C(C)C [SEQ ID NO. 3, Ac-SVT] (Ac-Ser-Val-Thr-OH)
% Inhibition (3 nM) [2]: 36.80%

CC(=O)N[C@@H](CO)C(=O)N[C@H](C(=O)N[C@H](C(N)=O)[C@@H](C)O)C(C)C [SEQ ID NO. 5, Ac-SVT-NH2] (Ac-Ser-Val-Thr-NH2)
half-life (T1/2 in plasma (mouse)): 1.98 h | % Inhibition (3 nM) [2]: 42.50% | effectiveness in inhibiting PBL transmigration compared with PEPITEM (% Inhibition at 0.3 and/or 3 nM) [2]: more effective

CC(C)[C@H](NC(=O)[C@@H](N)[C@@H](C)O)C(=O)N[C@H](C(N)=O)[C@@H](C)O [SEQ ID NO. 8, H-TVT-NH2] (H-Thr-Val-Thr-NH2)
half-life (T1/2 in plasma (mouse)): 0.283 h | % Inhibition (0.3 nM) [2]: 45.47% | % Inhibition (3 nM) [2]: 48.19% | effectiveness in inhibiting PBL transmigration compared with PEPITEM (% Inhibition at 0.3 and/or 3 nM) [2]: more effective

CC(C)[C@H](NC(=O)[C@@H](N)CO)C(=O)N[C@@H](CO)C(N)=O [SEQ ID NO. 9, H-SVS-NH2] (H-Ser-Val-Ser-NH2)
half-life (T1/2 in plasma (mouse)): 1.72 h | % Inhibition (0.3 nM) [2]: 42.51% | % Inhibition (3 nM) [2]: 38.10% | effectiveness in inhibiting PBL transmigration compared with PEPITEM (% Inhibition at 0.3 and/or 3 nM) [2]: more effective

COC[C@H](N)C(=O)N[C@H](C(=O)N[C@H](C(N)=O)[C@@H](C)O)C(C)C [SEQ ID NO. 12, H-S(OMe)VT-NH2] (H-Ser(Me)-Val-Thr-NH2)
% Inhibition (0.3 nM) [2]: 34.72% | % Inhibition (3 nM) [2]: 62.27% | effectiveness in inhibiting PBL transmigration compared with PEPITEM (% Inhibition at 0.3 and/or 3 nM) [2]: more effective

CCCCCCNC(=O)[C@@H](NC(=O)[C@@H](NC(=O)[C@@H](N)CO)C(C)C)[C@@H](C)O [SEQ ID NO. 13, H-SVT-NH-Hexyl]
% Inhibition (0.3 nM) [2]: 23.56% | % Inhibition (3 nM) [2]: 12.83%

CC[C@H](C)[C@H](NC(=O)[C@@H](N)CO)C(=O)N[C@H](C(N)=O)[C@@H](C)O [SEQ ID NO. 14, H-SIT-NH2] (H-Ser-Ile-Thr-NH2)
% Inhibition (0.3 nM) [2]: 3.40% | % Inhibition (3 nM) [2]: 28.23%

CC(C)C[C@H](NC(=O)[C@@H](N)CO)C(=O)N[C@H](C(N)=O)[C@@H](C)O [SEQ ID NO. 15, H-SLT-NH2] (H-Ser-Leu-Thr-NH2)
half-life (T1/2 in plasma (mouse)): 0.117 h | % Inhibition (0.3 nM) [2]: 46.00% | % Inhibition (3 nM) [2]: 20.75% | effectiveness in inhibiting PBL transmigration compared with PEPITEM (% Inhibition at 0.3 and/or 3 nM) [2]: more effective

C[C@@H](O)[C@H](NC(=O)[C@H](Cc1ccccc1)NC(=O)[C@@H](N)CO)C(N)=O [SEQ ID NO. 16, H-SFT-NH2] (H-Ser-Phe-Thr-NH2)
% Inhibition (0.3 nM) [2]: 39.78% | % Inhibition (3 nM) [2]: 33.33%

C[C@@H](O)[C@H](NC(=O)[C@H](Cc1ccc(O)cc1)NC(=O)[C@@H](N)CO)C(N)=O [SEQ ID NO. 18, H-SYT-NH2] (H-Ser-Tyr-Thr-NH2)
half-life (T1/2 in plasma (mouse)): 0.283 h | % Inhibition (0.3 nM) [2]: 39.18% | % Inhibition (3 nM) [2]: 42.83% | effectiveness in inhibiting PBL transmigration compared with PEPITEM (% Inhibition at 0.3 and/or 3 nM) [2]: more effective

CCNC(=O)[C@H](C)NC(=O)CNC(=O)[C@@H]1CCC(=O)N1 [SEQ ID NO. 22, pEGA-NH-Ethyl] ([pGlu]-Gly-Ala-NHEt)
half-life (T1/2 in plasma (mouse)): > 3 h | % Inhibition (0.3 nM) [2]: 35.40%

C[C@H](NC(=O)CNC(=O)[C@@H]1CCC(=O)N1)C(N)=O [SEQ ID NO. 23, pEGA-NH2] ([pGlu]-Gly-Ala-NH2)
half-life (T1/2 in plasma (mouse)): > 3 h | IC50 [2]: 0.0032 nM | % Inhibition (0.3 nM) [2]: 54.50% | effectiveness in inhibiting PBL transmigration compared with PEPITEM (% Inhibition at 0.3 and/or 3 nM) [2]: more effective | potency at inhibiting the transmigration of T cells compared with PEPITEM (IC50) ([2]; PEPITEM IC50 0.02): more potent

CCNC(=O)[C@H](C)NC(=O)CNC(=O)[C@H](CCC(N)=O)NC(C)=O [SEQ ID NO. 24, Ac-QGA-NH-Ethyl] (Ac-Gln-Gly-Ala-NHEt)
% Inhibition (0.3 nM) [2]: 50.00% | effectiveness in inhibiting PBL transmigration compared with PEPITEM (% Inhibition at 0.3 and/or 3 nM) [2]: more effective

CC(=O)N[C@@H](CCC(N)=O)C(=O)NCC(=O)NC(C)(C)C(=O)O [SEQ ID NO. 25, Ac-QGAib] (Ac-Gln-Gly-[Aib]-OH)
% Inhibition (0.3 nM) [2]: 32.00%

CC(=O)N[C@H](CCC(N)=O)C(=O)NCC(=O)N[C@H](C)C(N)=O [SEQ ID NO. 26, Ac-Q*GA*-NH2]
stability compared with PEPITEM (T1/2 in plasma (mouse)): at least as stable | half-life (T1/2 in plasma (mouse)): > 3 h | IC50 [2]: 0.018 nM

C[C@@H](NC(=O)CNC(=O)[C@H]1CCC(=O)N1)C(N)=O [SEQ ID NO. 28, pE*GA*-NH2] ([d(pGlu)]-Gly-[dA]-NH2)
half-life (T1/2 in blood (mouse)): 1.17 h

CNC(=O)[C@H](C)NC(=O)CNC(=O)[C@@H]1CCC(=O)N1 [SEQ ID NO. 29, pEGA-NHMe] ([pGlu]-Gly-Ala-NHMe)
half-life (T1/2 in blood (mouse); whole blood): 1.62 h | % Inhibition (0.3 nM) [2]: 40.89% | % Inhibition (3 nM) [2]: 43.35%

C[C@H](NC(=O)CNC(=O)[C@@H]1CCC(=O)N1)C(=O)N(C)C [SEQ ID NO. 30, pEGA-N(Me)2] ([pGlu]-Gly-Ala-NMe2)
half-life (T1/2 in blood (mouse); whole blood): > 3 h | % Inhibition (0.3 nM) [2]: 44.70% | % Inhibition (3 nM) [2]: 42.65%

CC(C)[C@H](NC(=O)CNC(=O)[C@@H]1CCC(=O)N1)C(N)=O [SEQ ID NO. 31, pEGV-NH2] ([pGlu]-Gly-Val-NH2)
half-life (T1/2 in blood (mouse); whole blood): > 3 h | % Inhibition (0.3 nM) [2]: 49.94% | % Inhibition (3 nM) [2]: 50.27%

CC(C)C[C@H](NC(=O)CNC(=O)[C@@H]1CCC(=O)N1)C(N)=O [SEQ ID NO. 32, pEGL-NH2] ([pGlu]-Gly-Leu-NH2)
% Inhibition (0.3 nM) [2]: 25.34% | % Inhibition (3 nM) [2]: 58.16%

NC(=O)[C@H](Cc1ccccc1)NC(=O)CNC(=O)[C@@H]1CCC(=O)N1 [SEQ ID NO. 33, pEGF-NH2] ([pGlu]-Gly-Phe-NH2)
half-life (T1/2 in blood (mouse); whole blood): 2.43 h | % Inhibition (0.3 nM) [2]: 49.15% | % Inhibition (3 nM) [2]: 42.84%

EGA
eye tissue in which the peptide was found by mass spectrometry [1]: Retina only

ELSNEER [SEQ ID NO. 47, reference compound]
ALP activity (mineralisation), human osteoblasts [3]: did not exhibit a statistically significant change in osteoblast activity | ALP activity (mineralisation), murine osteoblasts ([4]; 10 ng/ml peptide, 4 days, FIG. 5a): did not exhibit a statistically significant change in osteoblast activity

H-S*V*T*-NH2 [SEQ ID NO. 10]
% Inhibition (0.3 nM) [2]: 24.76% | % Inhibition (3 nM) [2]: 39.51%

H-S*VT-NH2 [SEQ ID NO. 7]
% Inhibition (0.3 nM) [2]: 9.50%

SVTQAA [SEQ ID NO. 40]
PBL transmigration ([2]; PBL0 37%, FIG. 4): 23% | effect on PBL transmigration ([2]; compared to untreated PBL (PBL0), 20 ng/ml): significant (p<0.01) fall in PBL transmigration

TSV
ALP activity (maturation mineralisation), murine osteoblasts ([4]; 8 days, FIG. 5b): significantly increased
